Test results as given in ChEMBL document CHEMBL1157232, “Wortmannilactones A-D, 22-membered triene macrolides from Talaromyces wortmannii” (J Nat Prod, 2006).
pIC50: −log10 of the molar value. In brackets after ≈: the same amount, converted by molar mass.

Columns and labels:
[1] = tested on: Human alphaherpesvirus 1; assay: Antiviral activity against Herpes simplex virus 1; assay type: functional, organism-based
[2] = tested on: B16-F10; assay: Cytotoxicity against mouse B16-F10 cells; assay type: functional, cell-based
[3] = tested on: Human alphaherpesvirus 2; assay: Antiviral activity against Herpes simplex virus 2; assay type: functional, organism-based
[4] = Cytotoxicity against human HCT5 cells; assay type: functional, cell-based
[5] = tested on: K562; assay: Cytotoxicity against human K562 cells; assay type: functional, cell-based
[6] = Cytotoxicity against human HCT115 cells; assay type: functional, cell-based
[7] = tested on: MDA-MB-231; assay: Cytotoxicity against human MDA-MB-231 cells; assay type: functional, cell-based
[8] = tested on: A549; assay: Cytotoxicity against human A549 cells; assay type: functional, cell-based

Compound | IC50 [1] [µg/mL] | IC50 [2] [µg/mL] | IC50 [3] [µg/mL] | pIC50 [4] | pIC50 [5] | pIC50 [6] | pIC50 [7] | pIC50 [8]
C[C@@H]1CCC/C=C/C=C/[C@H](O)C[C@@H](O)C/C=C\C=C\[C@@H](O)C/C=C/C=C\C(=O)O1 [MACROLACTIN A] | 5 (≈ 12.4 µM) | 3.5 (≈ 8.69 µM) | 8.3 (≈ 20.6 µM) | – | – | – | – | –
CC(O)CC1C/C=C/C=C/C=C/C(O)CC(O)CC(O)C/C=C/C=C/C=C/C(=O)O1 (stereo not drawn) [WORTMANNILACTONE A] | – | – | – | 4.54 | 4.18 | 4.46 | 3.97 | 4.12
COC1/C=C/C=C/C=C/CC(CC(C)O)OC(=O)/C=C/C=C/C=C/CC(O)CC(O)C1 (stereo not drawn) [WORTMANNILACTONE B] | – | – | – | 4.49 | 3.94 | 4.38 | 4.02 | 3.98
CC(O)CC1CC(O)/C=C/C=C/C=C/CC(O)CC(O)C/C=C/C=C/C=C/C(=O)O1 (stereo not drawn) [WORTMANNILACTONE C] | – | – | – | 4.25 | 3.88 | 4.28 | 3.92 | 3.93
COC1/C=C/C=C/C=C/CC(O)CC(O)C/C=C/C=C/C=C/C(=O)OC(CC(C)O)C1 (stereo not drawn) [WORTMANNILACTONE D] | – | – | – | 4.33 | 3.91 | 4.35 | 3.95 | 3.94
